Measured values as given in PubChem BioAssay (NCI).
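Assay format: 96-well plates, 48-hour exposure. GI50 = concentration required for 50% inhibition of growth. TGI denotes the concentration required for complete inhibition of growth.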

Tested on: MDA-MB-468 breast
Assay: inhibition of tumour cell growth, NCI panel, 48 h

Going from CC1=NN(c2cccc(Cl)c2)C(=O)/C1=C\c1cn(CC(O)CN2CCCCC2)c2ccccc12 (configuration not stated) to Nc1cc2c3c(cccc3c1)C(=O)N(CCN1CCCC1)C2=O, the GI50 falls from 10400 nM to 4480 nM (2.3-fold).

First: O=C(Nc1n[nH]c2cc(-c3cc(F)ccc3F)ccc12)C1CC1
Second: CC(C)(C)C[C@H]1N[C@@H](C(=O)NC2CCC(O)CC2)[C@H](c2cccc(Cl)c2F)[C@@]12C(=O)Nc1cc(Cl)ccc12 (some centres not stated)
The GI50 of the first is 1.7-fold higher: 6060 nM for the first, 3540 nM for the second.

Cc1ccccc1NC(=O)Nc1nc2ccc([N+](=O)[O-])cc2s1 and Cc1cccc(N2C(=O)/C(=C/C(Cl)=C/c3ccc([N+](=O)[O-])cc3)SC2=S)c1C are within 1.5-fold of each other in GI50: 2410 nM for the first, 1690 nM for the second.

Going from CCCCNC(c1ccc(Cl)cc1)C(O)c1ccc(Cl)cc1 (configuration not stated) to C/C(=C(/c1ccc(O)cc1)c1ccc(OCCN(C)C)cc1)c1ccc(Cl)cc1, the GI50 rises from 1690 nM to 13400 nM (7.9-fold).

First: O=C1C=CC(=O)c2c(O)c(N3CCN(CCO)CC3)c(Cl)c(O)c21
Second: COc1ccc2[nH]c(C(=O)N3CCN(C(=O)OCc4ccc5c(Cl)cc(Cl)c(O)c5n4)CC3)cc2c1
The GI50 of the first is 4.4-fold lower: 286 nM for the first, 1260 nM for the second.

Going from O=C1NC(=NCCc2ccc(Cl)cc2)S/C1=C\c1ccc2ncccc2c1 to OCc1ccc(N(Cc2ccc(F)cc2)Cc2ccc(F)cc2)cc1Cl, the GI50 falls from 7500 nM to 341 nM (22-fold).

First: COc1cc(/C=N/NC(=O)c2cnn3c2NC(c2ccccc2)C3)ccc1OC1CCCC1 (configuration not stated)
Second: C/C(=N/NC(=S)Nc1ccccc1)c1nc2ccc(Cl)cc2[nH]1
The GI50 of the first is 2.9-fold higher: 524 nM for the first, 181 nM for the second.

First: Cn1c(COC(=O)NCCn2ccnc2)nc2c(N3CCOCC3)nc(-c3ccccc3)nc21
Second: Cn1c(COC(=O)NCCc2ccccn2)nc2c(N3CCOCC3)nc(Cl)nc21
The GI50 of the first is 4.3-fold lower: 360 nM for the first, 1560 nM for the second.

First: NC(N)=N/N=C\c1ccc(OCc2ccccc2)cc1
Second: COc1ccc(-c2ccc(OC)c(OC)c2OC)cc1
The GI50 of the first is 3.3-fold higher: 1230 nM for the first, 377 nM for the second.

Compared with O=C1C(=O)c2c(nc3ccc(C(F)(F)F)cn23)-c2ccccc21, COc1ccc2c(c1)C(=O)c1c-2c(OCCCN(C)C)nc2cc(Br)ccc12 is 20-fold higher in GI50: 234 nM for the first, 4680 nM for the second.

CCCCCCCC/C=C/CCCCCCCC1=NC(C)(C)CN1C(C)(C)CO and CCCCCCCC(=O)OCC/C=C/C1OC1C1OC(=O)/C=C\C=C\C(=O)N(C(C)=O)C(=O)/C=C(/C)CCC2OC2C1OC(=O)NC(C)=O (configuration not stated) are within 1.5-fold of each other in GI50: 1730 nM for the first, 1210 nM for the second.

COC1=CC(c2ccc[nH]2)=N/C1=C\c1[nH]c(C)c(C(=O)CCCCCCCCC(=O)O[C@H]2CC[C@H]3C4CCc5cc(O)ccc5C4CC[C@]23C)c1C (some centres not stated) and O=C(NCc1ncc[nH]1)c1ccc(-c2nc3ccc4[nH]ncc4c3c3c2CCCC3)cc1 are within 1.5-fold of each other in GI50: 560 nM for the first, 640 nM for the second.

Going from C#C[C@]1(O)CC[C@H]2[C@@H]3CC=C4c5sc(Nc6ccc(Cl)cn6)nc5CC[C@]4(C)[C@H]3CC[C@@]21C to O=c1[nH]c(C2CCCN2)nc2c1oc1ccc(Cl)cc12 (configuration not stated), the GI50 rises from 7650 nM to greater than 67400 nM.

Compared with COc1cc(N2C(=O)[C@H](Cl)C2c2ccc(SC)cc2)cc(OC)c1OC (some centres not stated), COc1cc(C2CC(c3ccc(Nc4nc(NCCO)nc(NCCO)n4)cc3)=NN2c2cc(Cl)cc(Cl)c2)cc(OC)c1OC (configuration not stated) is 6.1-fold higher in GI50: 274 nM for the first, 1680 nM for the second.

Compared with C[C@@]1(F)[C@H](O)[C@@H](CO)O[C@H]1n1ccc(=O)[nH]c1=O, C[C@@H]1C[C@@H]([C@H](O)CC2CC(=O)NC(=O)C2)C(=O)[C@@H](C)C1 is lower in GI50: greater than 100000 nM for the first, 250 nM for the second.

First: CCN(CC)C(=S)SSC(C)C
Second: Cn1c(I)c(C#C[Si](C)(C)C)c(=O)n(C(=O)c2ccccc2)c1=O
The GI50 of the first is 15-fold higher: 17300 nM for the first, 1190 nM for the second.

Going from O=C1c2cc3c(cc2-c2c1c1cc(F)c(F)cc1c(=O)n2CCCn1ccnc1)OCO3 to CN(C)CCC(=O)Nc1ccc(-n2cc(-c3cccc(NC(=S)Nc4cccc(-c5cn(-c6ccc(NC(=O)CCN(C)C)cc6)nn5)c4)c3)nn2)cc1, the GI50 rises from 20.5 nM to 4740 nM (230-fold).

COc1ccc(-n2c(=S)sc3c(Cl)nc(C)nc32)c(OC)c1 and CCOC(=O)Nc1ccc2nc(-c3cscn3)[nH]c2c1 are within 1.5-fold of each other in GI50: 1980 nM for the first, 2440 nM for the second.

CC1=NN(c2cccc(Cl)c2)C(=O)/C1=C\c1cn(CC(O)CN2CCCCC2)c2ccccc12 (configuration not stated) and Nc1cc2c3c(cccc3c1)C(=O)N(CCN1CCCC1)C2=O are within 1.5-fold of each other in TGI: 25500 nM for the first, 21100 nM for the second.

Going from O=C(Nc1n[nH]c2cc(-c3cc(F)ccc3F)ccc12)C1CC1 to CC(C)(C)C[C@H]1N[C@@H](C(=O)NC2CCC(O)CC2)[C@H](c2cccc(Cl)c2F)[C@@]12C(=O)Nc1cc(Cl)ccc12 (some centres not stated), the TGI falls from greater than 25000 nM to 18500 nM.

Cc1ccccc1NC(=O)Nc1nc2ccc([N+](=O)[O-])cc2s1 and Cc1cccc(N2C(=O)/C(=C/C(Cl)=C/c3ccc([N+](=O)[O-])cc3)SC2=S)c1C are within 1.5-fold of each other in TGI: 5370 nM for the first, 4250 nM for the second.

First: CCCCNC(c1ccc(Cl)cc1)C(O)c1ccc(Cl)cc1 (configuration not stated)
Second: C/C(=C(/c1ccc(O)cc1)c1ccc(OCCN(C)C)cc1)c1ccc(Cl)cc1
The TGI of the first is 9.7-fold lower: 3300 nM for the first, 31900 nM for the second.

First: O=C1C=CC(=O)c2c(O)c(N3CCN(CCO)CC3)c(Cl)c(O)c21
Second: COc1ccc2[nH]c(C(=O)N3CCN(C(=O)OCc4ccc5c(Cl)cc(Cl)c(O)c5n4)CC3)cc2c1
The TGI of the first is 2.8-fold lower: 1000 nM for the first, 2780 nM for the second.

First: O=C1NC(=NCCc2ccc(Cl)cc2)S/C1=C\c1ccc2ncccc2c1
Second: OCc1ccc(N(Cc2ccc(F)cc2)Cc2ccc(F)cc2)cc1Cl
The TGI of the first is higher: greater than 25000 nM for the first, 1700 nM for the second.

Going from COc1cc(/C=N/NC(=O)c2cnn3c2NC(c2ccccc2)C3)ccc1OC1CCCC1 (configuration not stated) to C/C(=N/NC(=S)Nc1ccccc1)c1nc2ccc(Cl)cc2[nH]1, the TGI falls from 5710 nM to 776 nM (7.4-fold).

Going from Cn1c(COC(=O)NCCn2ccnc2)nc2c(N3CCOCC3)nc(-c3ccccc3)nc21 to Cn1c(COC(=O)NCCc2ccccn2)nc2c(N3CCOCC3)nc(Cl)nc21, the TGI rises from 1460 nM to 3770 nM (2.6-fold).

Compared with NC(N)=N/N=C\c1ccc(OCc2ccccc2)cc1, COc1ccc(-c2ccc(OC)c(OC)c2OC)cc1 is 1.7-fold higher in TGI: 2640 nM for the first, 4370 nM for the second.

Going from O=C1C(=O)c2c(nc3ccc(C(F)(F)F)cn23)-c2ccccc21 to COc1ccc2c(c1)C(=O)c1c-2c(OCCCN(C)C)nc2cc(Br)ccc12, the TGI rises from 560 nM to 18000 nM (32-fold).

First: CCCCCCCC/C=C/CCCCCCCC1=NC(C)(C)CN1C(C)(C)CO
Second: CCCCCCCC(=O)OCC/C=C/C1OC1C1OC(=O)/C=C\C=C\C(=O)N(C(C)=O)C(=O)/C=C(/C)CCC2OC2C1OC(=O)NC(C)=O (configuration not stated)
The TGI of the first is 1.7-fold lower: 3230 nM for the first, 5600 nM for the second.

Going from COC1=CC(c2ccc[nH]2)=N/C1=C\c1[nH]c(C)c(C(=O)CCCCCCCCC(=O)O[C@H]2CC[C@H]3C4CCc5cc(O)ccc5C4CC[C@]23C)c1C (some centres not stated) to O=C(NCc1ncc[nH]1)c1ccc(-c2nc3ccc4[nH]ncc4c3c3c2CCCC3)cc1, the TGI falls from greater than 50000 nM to 1850 nM.

C#C[C@]1(O)CC[C@H]2[C@@H]3CC=C4c5sc(Nc6ccc(Cl)cn6)nc5CC[C@]4(C)[C@H]3CC[C@@]21C and O=c1[nH]c(C2CCCN2)nc2c1oc1ccc(Cl)cc12 (configuration not stated) cannot be ordered by TGI: greater than 100000 nM for the first, greater than 100000 nM for the second.

Compared with COc1cc(N2C(=O)[C@H](Cl)C2c2ccc(SC)cc2)cc(OC)c1OC (some centres not stated), COc1cc(C2CC(c3ccc(Nc4nc(NCCO)nc(NCCO)n4)cc3)=NN2c2cc(Cl)cc(Cl)c2)cc(OC)c1OC (configuration not stated) is lower in TGI: greater than 100000 nM for the first, 4480 nM for the second.

Compared with C[C@@]1(F)[C@H](O)[C@@H](CO)O[C@H]1n1ccc(=O)[nH]c1=O, C[C@@H]1C[C@@H]([C@H](O)CC2CC(=O)NC(=O)C2)C(=O)[C@@H](C)C1 is lower in TGI: greater than 100000 nM for the first, 4050 nM for the second.

Going from CCN(CC)C(=S)SSC(C)C to Cn1c(I)c(C#C[Si](C)(C)C)c(=O)n(C(=O)c2ccccc2)c1=O, the TGI falls from 45800 nM to 2870 nM (16-fold).

Compared with O=C1c2cc3c(cc2-c2c1c1cc(F)c(F)cc1c(=O)n2CCCn1ccnc1)OCO3, CN(C)CCC(=O)Nc1ccc(-n2cc(-c3cccc(NC(=S)Nc4cccc(-c5cn(-c6ccc(NC(=O)CCN(C)C)cc6)nn5)c4)c3)nn2)cc1 is 250-fold higher in TGI: 90.7 nM for the first, 22700 nM for the second.

Going from COc1ccc(-n2c(=S)sc3c(Cl)nc(C)nc32)c(OC)c1 to CCOC(=O)Nc1ccc2nc(-c3cscn3)[nH]c2c1, the TGI rises from 6570 nM to greater than 100000 nM.
